Where two headings read alike, the source gives them in different places.
Key:
[1] = safety data sheet class; cited from earlier work
[2] = Crystallization test of azoxystrobin solution upon dilution in water; assay type: physicochemical; details: azoxystrobin solution (100 g/L) in the solvent diluted 1:20 in water
Source text: The active ingredient azoxystrobin was chosen to carry out an additional test of crystallization of the active ingredient upon dilution in water. […] Among the solvents chosen for evaluation are the solvents dihydrolevoglucosenone, γ-butyrolactone, N-methylpyrrolidone, and triacetin.

[3] = tested on: Euphorbia pulcherrima (Euphorbiaceae), Poinsettia
Source text: Phytotoxicity data were generated in tests on Poinsettia (red leaves plant), since this leaf is sensitive to damage caused by chemical agents, which makes it possible to verify and compare the tested solvents.

[4] = Solvency: maximum amount of active ingredient solubilized per liter of solvent; details: for Solvency in N-methylpyrrolidone (NMP): solvent N-methylpyrrolidone (NMP); for Solvency in γ-butyrolactone: solvent γ-butyrolactone
Experimental: The above compositions were prepared at a temperature of about 50° ° C. stirred with a vortex mixer until visual inspection indicated the absence of solids, confirming solubilization of the active ingredient in the solvent.

[5] = 1-octanol/water; cited from earlier work
[6] = Euphorbia pulcherrima (Poinsettia), in vivo, 24 h

Row | SMILES | Eye irritation [1] | Observation by dilution [2] | Solvency in N-methylpyrrolidone (NMP) [4] [g/L] | Solvency in γ-butyrolactone [4] [g/L] | other results
1 | O=C1CCCO1 [γ-butyrolactone] | 1 | Immediate | – | – | Aquatic environment tox. [1]: 3; Central nervous system tox. [1]: 3; Phytotoxicity (damage %) ([3]; damage observed in each Poinsettia leaf after 24 h of exposure): 27%
2 | CC(=O)OCC(COC(C)=O)OC(C)=O [Triacetin] | – | Two-phase | – | – | –
3 | OC(Cc1ccccc1Cl)(Cn1nc[nH]c1=S)C1(Cl)CC1 (centres unmarked) [Prothioconazole] | – | – | 1100 | 900 | –
4 | CS(=O)(=O)c1ccc(C(=O)C2C(=O)CCCC2=O)c([N+](=O)[O-])c1 [Mesotrione] | – | – | 400 | 300 | –
5 | O=C1CCC2COC1O2 (centres unmarked) [dihydrolevoglucosenone, 6,8-dioxabicyclo[3.2.1]octan-4-one] | 2A | Two-phase | – | – | logP [5]: −1.52; Phytotoxicity (damage %) [3, 6]: 6%
6 | CO/C=C(/C(=O)OC)c1ccccc1Oc1cc(Oc2ccccc2C#N)ncn1 [Azoxystrobin] | – | – | 900 | 800 | –
7 | CN1CCCC1=O [NMP, N-methylpyrrolidone] | 2A | Immediate | – | – | Reproductive system tox. [1]: 1B; Respiratory tox. [1]: 3; Skin irritation [1]: 2; logP [5]: −0.40; Phytotoxicity (damage %) [3, 6]: 42%

From US20240251787A1, “AGROCHEMICAL COMPOSITION, AGROCHEMICAL FORMULATION, USE OF A DIOXABICYCLOALKANE DERIVATIVE, AND, METHOD FOR THE TREATMENT AND/OR PREVENTION OF DISEASES OR PESTS IN A PLANT OR PLANT SEED” (Oxiteno S.A. Indústria e Comércio, priority 2021, published 2024)
